Converted amounts (≈) assume the structure as drawn.

What all share (type): functional
Test [1] has as its system Mycobacterium tuberculosis. As to the kind of experiment: Antimycobacterial activity against Mycobacterium tuberculosis H37Ra UAlRa incubated for 6 days by luminescence based assay. The settings on record: 144 h.
For test [2], the system named is Mycobacterium tuberculosis. The test is described as follows: Antimycobacterial activity against Mycobacterium tuberculosis K12.
Test [3] concerns Mycobacterium tuberculosis. As to the kind of experiment: Antimycobacterial activity against Mycobacterium tuberculosis K5.
For test [4], the system named is Mycobacterium tuberculosis. As to the kind of experiment: Antimycobacterial activity against Mycobacterium tuberculosis K2.
Test [5] concerns Mycobacterium tuberculosis. The test is described as follows: Antimycobacterial activity against Mycobacterium tuberculosis K18.
Test [6] concerns Mycobacterium tuberculosis. As to the kind of experiment: Antimycobacterial activity against Mycobacterium tuberculosis K4.
Test [7] concerns Mycobacterium tuberculosis. The test is described as follows: Antimycobacterial activity against Mycobacterium tuberculosis H37Rv.
Test [8] concerns Mycobacterium tuberculosis. The test is described as follows: Antimycobacterial activity against Mycobacterium tuberculosis K16.

`CC(O)c1cc2c(o1)C(=O)c1ccccc1C2=O` (configuration not stated): 41.2 µM (≈ 9.98 µg/mL) was the least that counted as inhibitory in test [1] (MIC).
For `CC(c1cc2c(o1)C(=O)c1ccccc1C2=O)N1CCCCC1` (configuration not stated), 32.3 µM (≈ 9.99 µg/mL) was the least that counted as inhibitory in test [1] (MIC).
On the same count and under the same terms, to `CC(c1cc2c(o1)C(=O)c1ccccc1C2=O)N1CCOCC1` (configuration not stated) belongs 32.1 µM (≈ 9.99 µg/mL); to `CC(Br)c1cc2c(o1)C(=O)c1ccccc1C2=O` (configuration not stated), 16.5 µM (≈ 5.03 µg/mL).
Take `COC(=O)CC1CCN(C(=O)c2cc3c(o2)C(=O)c2ccccc2C3=O)CC1`: in test [1], the MIC (in general, the least concentration at which growth counts as inhibited) was 3.28 µM (≈ 1.25 µg/mL).
`O=C(NCCN1CCOCC1)c1cc2c(o1)C(=O)c1ccccc1C2=O`: the MIC in test [1] was 7.1 µM (≈ 2.52 µg/mL).
On the same count and under the same terms, to `O=C(NC1CCCCC1)c1cc2c(o1)C(=O)c1ccccc1C2=O` belongs 7.7 µM (≈ 2.49 µg/mL); to `CCN1CCN(C(=O)c2cc3c(o2)C(=O)c2ccccc2C3=O)CC1`, 7.4 µM (≈ 2.5 µg/mL).
On the same count and under the same terms, in the case of `O=C1c2ccccc2C(=O)c2oc(C(=O)N3CCC(c4cccc(Cl)c4)CC3)cc21` it was at least 23.9 µM.
The molecule `O=C(NCCc1ccccc1)c1cc2c(o1)C(=O)c1ccccc1C2=O` had an MIC in test [1] of at least 28.9 µM.
For `O=C(NCCc1ccccc1F)c1cc2c(o1)C(=O)c1ccccc1C2=O`, the MIC in test [2] came to 2.5 µg/mL (≈ 6.88 µM); in test [3], 12.5 µg/mL (≈ 34.4 µM); in test [4], 0.5 µg/mL (≈ 1.38 µM); in test [5] it was 2.5 µg/mL (≈ 6.88 µM); in test [6] it was 12.5 µg/mL (≈ 34.4 µM); in test [7], 0.5 µg/mL (≈ 1.38 µM). The MIC was found to be 2.5 µg/mL (≈ 6.88 µM) in test [8] and 1.7 µM (≈ 0.618 µg/mL) in test [1].
On to `O=C(NCCc1ccc(F)cc1)c1cc2c(o1)C(=O)c1ccccc1C2=O`, for which, in test [1], the MIC is 1.7 µM (≈ 0.618 µg/mL).
Turning to `O=C1c2ccccc2C(=O)c2oc(C(=O)N3CCN(c4cccc(C(F)(F)F)c4)CC3)cc21`, the MIC came to 1 µg/mL (≈ 2.2 µM) in test [2]; 25 µg/mL (≈ 55 µM) in test [3]; 0.5 µg/mL (≈ 1.1 µM) in test [4]; 2.5 µg/mL (≈ 5.5 µM) in test [5]; 25 µg/mL (≈ 55 µM) in test [6]; 1 µg/mL (≈ 2.2 µM) in test [7]. For the same molecule, the results for the MIC in test [8] and in test [1] were 1 µg/mL (≈ 2.2 µM) and 2.7 µM (≈ 1.23 µg/mL), respectively.
Turning to `O=C1c2ccccc2C(=O)c2oc(C(=O)N3CCCCC3)cc21`, the MIC amounted to 1 µg/mL (≈ 3.23 µM) in test [2]; 12.5 µg/mL (≈ 40.4 µM) in test [3]; 0.5 µg/mL (≈ 1.62 µM) in test [4]; 2.5 µg/mL (≈ 8.08 µM) in test [5]; 12.5 µg/mL (≈ 40.4 µM) in test [6]; 0.5 µg/mL (≈ 1.62 µM) in test [7]. Also, the MIC stood at 1 µg/mL (≈ 3.23 µM) in test [8] and 2 µM (≈ 0.619 µg/mL) in test [1].
For `O=C1c2ccccc2C(=O)c2oc(C(=O)N3CCC(c4ccc(F)cc4)CC3)cc21`, in test [1], the MIC was at least 24.9 µM.
The same measure, in the same setting: in the case of `O=C1c2ccccc2C(=O)c2oc(C(=O)N3CCOCC3)cc21` it was 4 µM (≈ 1.25 µg/mL); in that of `O=C1c2ccccc2C(=O)c2oc(C(=O)N3CCCC3)cc21`, 4.2 µM (≈ 1.24 µg/mL); in that of `O=C(NCc1ccccc1F)c1cc2c(o1)C(=O)c1ccccc1C2=O`, 1.8 µM (≈ 0.629 µg/mL).
Still for that read-out and setting: to `O=C(/C=C/c1ccccc1)c1cc2c(o1)C(=O)c1ccccc1C2=O` belongs at least 30.4 µM.
On the same count and under the same terms, to `O=C(NCCc1ccc(Cl)cc1)c1cc2c(o1)C(=O)c1ccccc1C2=O` belongs 6.6 µM (≈ 2.51 µg/mL); to `O=C(NCc1cccc(F)c1)c1cc2c(o1)C(=O)c1ccccc1C2=O`, 0.9 µM (≈ 0.314 µg/mL); to `CN1CCN(C(=O)c2cc3c(o2)C(=O)c2ccccc2C3=O)CC1`, 7.7 µM (≈ 2.5 µg/mL).
On to `O=C1c2ccccc2C(=O)c2oc(C(=O)N3CCSCC3)cc21`, for which the MIC in test [2] was found to be 0.5 µg/mL (≈ 1.53 µM); in test [3], 4 µg/mL (≈ 12.2 µM); in test [4], 0.25 µg/mL (≈ 0.764 µM); in test [5], 0.5 µg/mL (≈ 1.53 µM); in test [6], 2 µg/mL (≈ 6.11 µM); in test [7] it was 0.5 µg/mL (≈ 1.53 µM). The MIC in test [8] stood at 0.5 µg/mL (≈ 1.53 µM); in test [1], 1.9 µM (≈ 0.622 µg/mL).
On to `O=C(/C=C/c1cccs1)c1cc2c(o1)C(=O)c1ccccc1C2=O`, for which 29.9 µM (≈ 10 µg/mL) was the least that counted as inhibitory in test [1] (MIC).
On the same count and under the same terms, to `O=C1CCN(C(=O)c2cc3c(o2)C(=O)c2ccccc2C3=O)CC1` belongs 7.7 µM (≈ 2.49 µg/mL); to `Cn1cccc1/C=C/C(=O)c1cc2c(o1)C(=O)c1ccccc1C2=O`, at least 30.4 µM; to `O=C(NCCN1CCCCC1)c1cc2c(o1)C(=O)c1ccccc1C2=O`, 3.6 µM (≈ 1.27 µg/mL).
On the same count and under the same terms, in the case of `O=C(NCCc1cccc(F)c1)c1cc2c(o1)C(=O)c1ccccc1C2=O` it was 0.9 µM (≈ 0.327 µg/mL).
`CC1(C)CCC(NC(=O)c2cc3c(o2)C(=O)c2ccccc2C3=O)CC1`: the MIC in test [2] turned out to be 2.5 µg/mL (≈ 7.11 µM); in test [3], 25 µg/mL (≈ 71.1 µM); in test [4], 0.25 µg/mL (≈ 0.711 µM); in test [5], 2.5 µg/mL (≈ 7.11 µM); in test [6] it was 25 µg/mL (≈ 71.1 µM); in test [7], 0.5 µg/mL (≈ 1.42 µM). Besides, the MIC came out at 2.5 µg/mL (≈ 7.11 µM) in test [8] and 3.56 µM (≈ 1.25 µg/mL) in test [1].
In test [1], `O=C(NCc1ccc(F)cc1)c1cc2c(o1)C(=O)c1ccccc1C2=O` returned an MIC of 1.8 µM (≈ 0.629 µg/mL).
Still for that read-out and setting: in the case of `O=C(/C=C/c1ccc(O)cc1)c1cc2c(o1)C(=O)c1ccccc1C2=O` it was at least 29.1 µM; in that of `CC(=O)c1cc2c(o1)C(=O)c1ccccc1C2=O` [NAPABUCASIN], 10.4 µM (≈ 2.5 µg/mL).

The record behind these values is ChEMBL document CHEMBL4334434, “Discovery of napabucasin derivatives for the treatment of tuberculosis” (2019).
